Patent publication US20240131155A1, “T CELLS FOR USE IN THERAPY” (Erasmus University Medical Center Rotterdam, priority 2021, published 2024)
Like-named read-outs stand apart in the source and are kept apart here. Peptide text beside a SMILES is read from it.

Tests used:
[1] = biological target: T1, HLA-A2 (Homo sapiens, UniProt P04439, D140Y/D185E/D98H/E176V/E277Q/G131W/G231S/I119V/I121R/I166T/I218V/L300P/L318F/N151K/N90K/P208A/P217A/Q86G/Q94H/R138H/R169H/T345S); assay: HLA-A2 stabilization assay using T2 cells; format: binding
T1 construct: The HLA-A2 stabilization assay was performed using T2 cells; endogenous in cells; host or cells: T2 cells (LCLxT lymphoblastoid hybrid cell line 0.1743CEM.T2)

[2] = test system: ROPN1 or ROPN1B over-expressing MDA-MB231 tumor cells; assay: IFNg production of TCR T cells co-cultured with ROPN1 or ROPN1B over-expressing tumor cells (endogenously processed epitope); format: cell-based, human; conditions: Table 4; responding TCRs / TCRs tested, T cells transduced with TCR specific for the epitope
Method: In a first series of in vitro tests, TCR-transduced T cells (6×10^4/well in a 96-well plate) were co-cultured with ROPN1 or ROPN1B over-expressing MDA-MB231 tumor cells (2×10^4/well) in a total volume of 200 μl of T cell medium for 24 h at 37° C. The ROPN1 or ROPN1B over-expressing tumor cells were generated as described under ‘generation and culture of cell lines and T cells’ (see above), and tumor cells were pre-treated 48 h with IFN-Y before co-culture with T cells. […] T cells that fulfilled these criteria (examples in FIG. 10A) were assessed for their sensitivity towards their cognate epitope. […] EC50 values were calculated using GraphPad Prism 5 software.

[3] = biological target: peptide:MHC (Homo sapiens, UniProt P04439, D140Y/D185E/D98H/E176V/E277Q/G131W/G231S/I119V/I121R/I166T/I218V/N151K/N90K/P208A/P217A/Q86G/Q94H/R138H/R169H); assay: TCR gene transfer into healthy donor T cells, surface expression by pMHC staining; format: cell-based; conditions: Table 4; T cells transduced with TCR specific for the epitope
Source text: (§1) Identified TCRα and TCRβ genes were codon optimized (GeneArt, Regensburg, Germany) and cloned into the pMP71 vector (a kind gift of prof. Wolfgang Uckert, MDC, Berlin, Germany) using a TCRβ-2A-TCRα cassette that was flanked by NotI and EcoRI restriction sites. Upon activation with anti-CD3 mAb OKT3, PBMCs from healthy donors were transduced with TCR-encoding retroviruses (pMP71) or empty vector that were produced by a co-culture of 293T and Phoenix-Ampho packaging cells, as described previously in Lamers et al., Cancer Gene Ther.;13(5):503-509 (2006), doi:10.1038/sj.cgt.7700916, and Straetemans G, Clin Dev Immunol, 2012. Staining for surface-expressed TCR transgenes was performed as described above (FIG. 5A,B).
as §1, with “TCRα” for “Identified TCRα”, “TCR13-2A-TCRα” for “TCRβ-2A-TCRα”, “2012.” for “2012. Staining for surface-expressed TCR transgenes was performed as described above (FIG. 5A,B).”
Staining for surface-expressed TCR transgenes was performed as described above. […] Note that for a single epitope (EVI; SEQ ID NO:24) pMHC complexes were insensitive to detect TCR T cells and replaced by stainings with antibodies directed against TCR-Vb7.1 and CD137. The expression of CD137 was measured following 48 h stimulation with EVI epitope-loaded BSM cells, and threshold for inclusion again being expression in more than 5% of cells in the CD3-positive cell population in at least 2 donors.

[4] = Table 2 (Example 1), EC50 of peptide titration on T2 cells, read-out: Affinity for HLA A2:01
[5] = Table 4 (Examples 1 and 2), EC50 of peptide titration on T2 cells, read-out: Affinity for HLA.A2.01

| Structure (SMILES) | EC50 [1, 4] [µM] | EC50 [1, 5] [µM] | T cell responses observed (IFNg) against endogenously presented epitope [2] | Surface expression % pMHC+ in CD3+ [3] [%] | EC50 ([1]; Example 1, top-ranked epitopes, read-out: EC50 (HLA-A2 binding)) [µM] |
| --- | --- | --- | --- | --- | --- |
| CSCC[C@H](NC(=O)[C@H](CCC(N)=O)NC(=O)[C@H](C)N)C(=O)N[C@@H](Cc1c[nH]c2ccccc12)C(=O)N[C@@H](CCCCN)C(=O)N[C@H](C(=O)N[C@H](C(=O)N[C@@H](CC(N)=O)C(=O)N[C@@H](CC(C)C)C(=O)O)C(C)C)C(C)C (H-AQMWKVVNL-OH; N-terminus and C-terminus assumed) | 11.4 | 10.5 | 0/1 responses | 49.7 | – |
| CC[C@H](C)[C@H](NC(=O)[C@H](Cc1ccc(O)cc1)NC(=O)[C@@H](NC(=O)[C@H](Cc1ccc(O)cc1)NC(=O)[C@H](CC(C)C)NC(=O)[C@@H](N)Cc1ccccc1)[C@@H](C)O)C(=O)N[C@@H](C)C(=O)N[C@@H](CCC(=O)O)C(=O)N[C@H](C(=O)O)C(C)C (H-FLYTYIAEV-OH; N-terminus and C-terminus assumed) | – | 21.1 | 1/1 responses | 5.02 | – |
| CC[C@H](C)[C@H](NC(=O)[C@H](Cc1ccc(O)cc1)NC(=O)[C@@H](NC(=O)[C@H](Cc1ccc(O)cc1)NC(=O)[C@H](CC(C)C)NC(=O)[C@@H](N)Cc1ccccc1)[C@@H](C)O)C(=O)N[C@@H](C)C(=O)N[C@@H](CCCCN)C(=O)N[C@H](C(=O)O)C(C)C (H-FLYTYIAKV-OH; N-terminus and C-terminus assumed) | 10.9 | 8.11 | 1/1 responses | 33.2 | – |
| CC[C@H](C)[C@H](NC(=O)[C@H](Cc1ccc(O)cc1)NC(=O)[C@H](CC(N)=O)NC(=O)[C@H](CC(C)C)NC(=O)[C@@H](N)CCSC)C(=O)N[C@@H](CCC(=O)O)C(=O)N[C@@H](CCC(N)=O)C(=O)N[C@@H](CCC(=O)O)C(=O)N[C@H](C(=O)O)C(C)C (H-MLNYIEQEV-OH; N-terminus and C-terminus assumed) | 6.56 | 4.82 | 0/2 responses | 49.7 | 6.6 |
